Entries after “also recorded” stand apart in the source; their conditions may differ. Read-outs that look alike come from different tables or passages of the source. Where a SMILES comes first, the peptide text is derived from it. The star is where a group is joined. Cbz = O=C(OCc1ccccc1)*; CH2F = FC*
Experiments:
[1] = test system: PC12 cells; test: Zinc-induced cell death of PC12 cells; assay type: cell-based; set-up: cell lysis (indicative of necrosis) of PC12 cells: dose or concentration left out as unconfirmed; conditions: for effect on cell viability: high (mM) concentrations
[2] = test system: IIC9 cells (embryonic fibroblasts); test: IIC9 cell death by trypan blue uptake; assay type: cell-based; conditions: for effect on cell viability: high (mM) concentrations; for attenuation of zinc-induced cell death: Z-VAD preincubation; for cell death: 6 h (FIG. 1A)
[3] = test system: ERK1/2; test: ERK1/2 activation in IIC9 cells, Western blot with anti-pERK antibody; assay type: cell-based; set-up: time until ERK activation is detected after zinc addition / time ERK activation remains elevated: dose or concentration left out as unconfirmed; conditions: for effect of inhibitor on ERK activation by zinc: IIC9 cells preincubated with inhibitor
Experimental: (§1) Assays: ERK1/2 activation was determined by harvesting cells directly in boiling SDS-PAGE sample buffer and probing corresponding Western Blots with anti-pERK antibody (Cell Signaling). Blots were stripped and reprobed for total ERK (Cell Signaling). Ras activation was determined using the Raf-RBD assay (21,24). Identification of the specific Ras isoform activated was determined by probing the western blot with isoform-specific antibody (Upstate Biotechnology). Transfection of IIC9 cells was carried out using Novafector. Transfection efficiency of these cells is approximately 90%. The constructs for expression of dn-Ras and Bcl-Xl were kindly provided by Dr. J. Corbett and Dr. Chinnaduri (SLU).

[4] = test system: IIC9 cells (embryonic fibroblasts); test: IIC9 cell morphology, microscopic examination; assay type: cell-based
Experimental: FIG. 1 depicts zinc-induced cell death in a time and dose dependent manner. (A) IIC9 cells (embryonic fibroblasts) were serum starved for 2 days and treated with the indicated concentrations of zinc for the indicated time periods. Cell death was monitored by trypan blue exclusion as described in the Materials and Methods. (B-D) Zinc-induced cell death is accompanied by morphological changes associated with apoptosis and necrosis. Shown are cells that were incubated with either 50 μM (C) or 200 μM (D) zinc for 6 hours. Control cells (B) were untreated. Cells were examined microscopically for changes in cell shape and size. […] Cell debris, indicative of cell lysis, was evident.
Cells and Incubation Conditions: IIC9 cells were grown in DMEM containing 10% FCS, P/S. Cells were plated in 12-well plates and grown to approximately 70% confluency. At that time, cells were serum arrested by changing the medium to DMEM (low glucose) without FCS. After 48 hours, cells were treated with zinc as described in the text. Cell death was quantified by trypan blue uptake. Cells were incubated with trypan blue (0.04%) for 5 min. Cells were examined microscopically and the number of blue cells and total cells were counted. Four fields were examined for each condition, with a minimum of 100 cells/field. To examine the effects of selective inhibitors, cells were preincubated with the indicated compound for 30 min. prior to zinc treatment.

[5] = test system: ERK; test: ERK activation (pERK) in PC12 cells; assay type: cell-based
[6] = test system: Ras; test: Ras activation in IIC9 cells, Raf-RBD pull-down assay; assay type: cell-based; conditions: for Ras isoform activated: isoform-specific antibody
Experimental: as §1
Because Ras is a common upstream activator of ERK1/2 (36), we reasoned that zinc may induce the phosphorylation of ERK1/2 via Ras. This was examined by incubating IIC9 cells with 100 uM zinc and assessing Ras activation by RBD pull-down of GTP-Ras followed by Western blot analysis with a pan-Ras antibody. […] The critical role of Ras in mediating the effects of zinc was confirmed by examining the effect of over-expression of dnRas. […] Consistent with Ras as the upstream activator of the cytotoxic effect of zinc on IIC9, expression of dn H-Ras also attenuates zinc-mediated cell death (FIG. 5B).

[7] = test system: PC3 cells (prostate cancer cell line); test: Killing of PC3 cells by zinc and zinc-containing liposomes; assay type: cell-based; conditions: PC3 cells in culture (FIG. 6)
Experimental: These cells express high levels of the transferrin receptor and can be targeted by covalently attaching transferrin to the formed liposomes.
We next tested the ability of these liposomes to kill PC3 cells in culture (FIG. 6).
Non-prophetically, zinc containing liposomes were prepared by injecting ethanolic solutions of lipids into 10 mM Hepes buffer pH 6 containing 2.5 M ZnCl2. To make the ethanolic lipid solution, lipids initially dissolved in chloroform were dried by passing gaseous nitrogen over the solution. The dried lipids were dissolved in ethanol at a concentration of […] of phospholipids per mL of alcohol. The alcoholic lipid solution containing dioleoyl phosphatidyly choline, 1,2 dioleoyl phosphatidyly ethanolamine, 1,2 dioleolyl phosphatidyletanolamine-N-4-(p-maleimido-phenyl)butyramide) and cholesterol in a ratio of 7:2:0.05:1 was slowly (0.5 ml/min) injected through a Hamilton syringe into 3 mL of a magnetically stirred Hepes buffer, containing 2.5 mM ZnCl2 The final concentration of ethanol was between 2.5-7.5%. During injection of the lipids, the solution was constantly stirred by a standard magnetic stirrer. To ensure that the temperature of the liposome solution was well above the phase transition of the lipids, the temperature was kept at […]. […]

[8] = test system: CD4+ CD8+ alpha beta TCR10CD3(10) thymocytes; conditions: 80-200 μM zinc; cited from earlier work
[9] = test system: N18TG2 (neuroblastoma) cells; test: Zinc-induced death of N18TG2 (neuroblastoma) cells; assay type: cell-based; conditions: 24 h incubation
Experimental: Exemplary cell types were treated in vitro with varying amounts of zinc (zinc chloride or zinc sulfate), in the presence or absence of the zinc ionophore pyrithione. […] Cell death involves both apoptosis and necrosis as determined by morphological observation.

[10] = test system: RAW (macrophage) cells; test: Zinc-induced death of RAW (macrophage) cells; assay type: cell-based
Experimental: Exemplary cell types were treated in vitro with varying amounts of zinc (zinc chloride or zinc sulfate), in the presence or absence of the zinc ionophore pyrithione.

[11] = PC12 cells, same range of concentrations as zinc
[12] = IIC9 cells, same range of concentrations as zinc

[Ca] [Ca]
effect on cell viability ([1]; PC12 cells): no effect on cell viability
effect on cell viability ([2]; IIC9 cells): no effect on cell viability

[Cd] [Cd]
cell death (apoptosis or necrosis) by metal salts [1, 11]: did result in cell death

[Cl-].[Cl-].[Co+2] [CoCl2]
cell death (apoptosis or necrosis) by metal salts [1]: No cell death
cell death by metal salts [2]: does not result in the cell death

O=S(=O)([O-])[O-].[Cu+2] [CuSO4]
cell death (apoptosis or necrosis) by metal salts [1, 11]: No cell death
cell death by metal salts [2, 12]: does not result in the cell death

[Li] [Li]
effect on cell viability ([1]; PC12 cells): no effect on cell viability
effect on cell viability ([2]; IIC9 cells): no effect on cell viability

[Mg] [Mg]
effect on cell viability ([1]; PC12 cells): no effect on cell viability
effect on cell viability ([2]; IIC9 cells): no effect on cell viability

[Mn] [Mn]
effect on cell viability ([1]; PC12 cells): no effect on cell viability
effect on cell viability ([2]; IIC9 cells): no effect on cell viability

[Cl][Ni][Cl] [NiCl2]
cell death (apoptosis or necrosis) by metal salts [1, 11]: No cell death
cell death by metal salts [2, 12]: does not result in the cell death

COc1cc2ncnc(Nc3cccc(Br)c3)c2cc1OC [PD153035]
effect of inhibitor on ERK activation by zinc [3]: does not alter ERK activation

CC(C)(C)n1nc(-c2ccc(Cl)cc2)c2c(N)ncnc21 [PP2]
effect of inhibitor on ERK activation by zinc [3]: does not inhibit zinc activation of ERK1/2

C[S+]([O-])c1ccc(-c2nc(-c3ccncc3)c(-c3ccc(F)cc3)[nH]2)cc1 (stereo not shown) [SB203580]
effect of preincubation with inhibitor on zinc-mediated cell death ([2]; 30 min preincubation, then 50 μM zinc (FIG. 2A)): does not affect zinc-mediated cell death

N#CC(=C(/N)Sc1ccccc1N)/C(C#N)=C(\N)Sc1ccccc1N [U0126]
effect of inhibitor on ERK activation by zinc [3]: significantly reduces ERK activation; also recorded: significantly reduced
effect of preincubation on zinc-induced cell death [1]: greatly attenuated
effect on morphological changes induced by zinc ([4]; cells preincubated with inhibitor, 50 μM zinc (FIG. 2B-D)): limited; also recorded: prevented the morphological changes
cell death in cells pretreated with inhibitor [2]: Little or no death
effect of preincubation with inhibitor on zinc-mediated cell death [2]: inhibits zinc-induced cell death
effect of preincubation on zinc-induced ERK activation ([5]; PC12 cells preincubated with inhibitor): attenuated that activation

CC(NC(=O)C(NC(=O)OCc1ccccc1)C(C)C)C(=O)NC(CC(=O)O)C(=O)CF (stereo not drawn) [Z-VAD] (Cbz-Val-Ala-Asp-CH2F; configuration not given here)
cell death in cells pretreated with Z-VAD ([2]; 50 μM zinc, first 6 hours of zinc treatment): little cell death
attenuation of zinc-induced cell death ([2]; 50 μM zinc, 21 h): 50%
attenuation of zinc-induced cell death ([2]; 100 μM zinc, 21 h): limited attenuation
attenuation of zinc-induced cell death ([2]; 100 μM zinc, first 6 hours): approximately 50%
effect of Z-VAD on zinc-mediated cell death ([2]; early hours (3-6), indicated zinc concentrations (FIG. 3A)): greatly attenuated death

O=S(=O)([O-])[O-].[Zn+2] [ZnSO4]
cell death (apoptosis or necrosis) by metal salts [1, 11]: equally effective as ZnCl2
cell death by metal salts [2, 12]: equally effective as ZnCl2

[Cl-].[Cl-].[Zn+2] [zinc]
activation of Ras ([6]; IIC9 cells, 100 uM zinc, pan-Ras antibody (FIG. 5A)): ~5 fold
Ras isoform activated ([6]; IIC9 cells): selective activation of H-Ras
cell death of PC3 cells [7]: underwent cell death
induction of pERK ([3]; IIC9 cells, western blotting with pERK antibody (FIG. 2E)): does induce pERK
time until ERK activation is detected after zinc addition ([3]; IIC9 cells, zinc): ≤ 5 min
time ERK activation remains elevated ([3]; IIC9 cells, zinc, longest time period examined): at least 6 h
cell lysis (indicative of necrosis) of PC12 cells ([1]; higher zinc concentrations or longer time periods): significant cell lysis
cell death of PC12 cells ([1]; undifferentiated or differentiated PC12 cells, in vitro): time and dose-dependent cell death
cell morphology ([4]; 50 μM zinc, 6 hours (FIG. 1C)): rounded and displayed differing degrees of cell shrinkage
cell population displaying a rounded morphology ([4]; 50 μM zinc, first few hours of incubation): approximately 50%
cell morphology ([4]; 200 μM zinc, 6 hours (FIG. 1D)): more varied morphology
cell morphology ([4]; 100 or 200 uM zinc, first few hours): all cells were rounded and underwent differing degrees of cell shrinkage
death of the population ([2]; 50 μM zinc, 6-h incubation, experiment of FIG. 2A): approximately 25%
cell death ([2]; 50 μM zinc): ~15%
cell death ([2]; 100 μM zinc): ~25%
cell death ([2]; 200 μM zinc): approximately 45%
extracellular zinc concentration necessary to induce the death pathway ([2]; IIC9 cells, in the absence of pyrithione): ≥ 50 µM
cell death of IIC9 cells ([2]; addition of zinc): time- and concentration-dependent
cell death during the first few hours ([2]; zinc concentrations as high as 200 μM, first few hours): Little or no death
thymocytes in which apoptosis was induced [8]: 40%
% death ([9]; 25 μM zinc): 19%
% death ([9]; 50 μM zinc): 75%
% death ([9]; 75 μM zinc): 84%
% death ([9]; 150 μM zinc): 90%
% cell death ([10]; 25 μM zinc, 0.0 hours of incubation): 0.0%
% cell death ([10]; 25 μM zinc, 1.0 hours of incubation): 0.0%
% cell death ([10]; 25 μM zinc, 3.0 hours of incubation): 0.0%
% cell death ([10]; 25 μM zinc, 5.0 hours of incubation): 0.0%
% cell death ([10]; 50 μM zinc, 5.0 hours of incubation): 0.0%
% cell death ([10]; 50 μM zinc, 18.0 hours of incubation): 20.0%
% cell death ([10]; 100 μM zinc, 18.0 hours of incubation): 100.0%
time until pERK could be detected ([5]; PC12 cells, after zinc treatment): within five minutes
time pERK remained at that level ([5]; PC12 cells, longest time period examined): at least five hours
ERK activation ([5]; zinc treatment of PC12 cells): induced ERK activation

thrombin
activation of Ras ([6]; IIC9 cells stimulated with thrombin, previous finding of the inventors): 3- to 5 fold
Ras isoform activated ([6]; IIC9 cells): rapid activation of N-Ras, followed by a sustained activation of K-Ras

— US20070212331A1, “Methods and compositions for selectively killing cells” (priority 2006, published 2007)
